Results taken from patent publication US20220290200A1, “GENETICALLY MODIFIED HOST CELLS PRODUCING GLYCOSYLATED CANNABINOIDS” (OCTARINE BIO IVS, priority 2019, published 2022).
Read-outs that look alike come from different tables or passages of the source.

Test: Caco-2 bi-directional permeability assay
Type: in vitro ADME, human
Conditions: human
Protocol: Intestinal permeability of cannabinoids and glycosylated cannabinoids was determined by measuring bi-directional transport across Caco-2 cell membranes. Caco-2 cells are used as an in vitro model of the human intestinal epithelium and permit assessment of the intestinal permeability of potential drugs. The test compound is added to either the apical or basolateral side of a confluent monolayer of Caco-2 cells and permeability is measured by monitoring the appearance of the test compound on the opposite side of the monolayer using LC-MS/QTOF. When performing a bi-directional assay, the efflux ratio (ER) is calculated from the ratio of B−A and A−B permeabilities. Caco-2 cells obtained from the ATCC are used between passage numbers 40-60. Cells are seeded onto Millipore Multiscreen Transwell plates at 1×10^5 cells/cm2. The cells are cultured in DMEM and media is changed every two or three days. On day 20 the permeability study is performed. Cell culture and assay incubations are carried out at 37° C. in an atmosphere of 5% CO2 with a relative humidity of 95%. On the day of the assay, the monolayers are prepared by rinsing both apical and basolateral surfaces twice with Hanks Balanced Salt Solution (HBSS) at the desired pH warmed to 37° C. Cells are then incubated with HBSS at the desired pH in both apical and basolateral compartments for 40 min to stabilize physiological parameters. 10 mM solutions of cannabinoids and cannabinoid glycosides are prepared in DMSO then diluted with assay buffer to give a final test compound concentration of 10 μM (final DMSO concentration of 1% v/v). The fluorescent integrity marker lucifer yellow is also included in the solution.
Analytical standards are prepared from test compound DMSO dilutions and transferred to buffer, maintaining a 1% v/v DMSO concentration. For assessment of A−B permeability, HBSS is removed from the apical compartment and replaced with test compound solution. The apical compartment insert is then placed into a companion plate containing fresh buffer (containing 1% v/v DMSO). For assessment of B−A permeability, HBSS is removed from the companion plate and replaced with test compound solution. Fresh buffer (containing 1% v/v DMSO) is added to the apical compartment insert, which is then placed into the companion plate. At 120 min the apical compartment inserts and the companion plates are separated and apical and basolateral samples diluted for analysis. Test compound permeability is assessed in duplicate. Compounds of known permeability characteristics are run as controls on each assay plate. Test and control compounds are quantified by LC-MS/QTOF as described above. The starting concentration (C0) is determined from the solution and the experimental recovery calculated from C0 and both apical and basolateral compartment concentrations. The integrity of the monolayer throughout the experiment is checked by monitoring lucifer yellow permeation using fluorometric analysis. The permeability coefficient (Papp) for each compound is calculated from the following equation: Papp=(dQ/dt)/(C0×A) Where dQ/dt is the rate of permeation of the drug across the cells, C0 is the donor compartment concentration at time zero and A is the area of the cell monolayer. C0 is obtained from analysis of the dosing solution. The efflux ratio (ER) is calculated from mean Papp values from A−B and B−A data. This is derived from: ER=Papp(B−A)/Papp(A−B). The % recovery is calculated from the following equation; % recovery=(Total compound in donor and receiver compartment at end of experiment)/(initial compound present)×100.
CBD glycosides were produced using glycosyl transferases and purified as described above. […] Low recovery of compound in a Caco-2 permeability assay can indicate problems with poor solubility, binding of the compound to the plate, metabolism by the Caco-2 cells or accumulation of the compound in the cell monolayer.

C=C(C)[C@@H]1CCC(C)=C[C@H]1c1c(O)cc(CCCCC)cc1O [CBD, cannabidiol, reference compound]
recovery at 120 min, 10 μM (Caco-2, apical to basolateral, 120 min, read-out: Mean recovery (%), Direction A→B): 16.4%
recovery at 120 min, 10 μM (Caco-2, basolateral to apical, 120 min, read-out: Mean recovery (%), Direction B→A): 48.8%
Papp A→B at 120 min, 10 μM (Caco-2, apical to basolateral, 120 min, mean and standard deviation of duplicates, read-out: Mean Papp, Direction A→B): 0.61 ± 0.03 ×10⁻⁶ cm/s
Papp B→A at 120 min, 10 μM (Caco-2, basolateral to apical, 120 min, mean and standard deviation of duplicates, read-out: Mean Papp, Direction B→A): 1.45 ± 0.64 ×10⁻⁶ cm/s
efflux ratio at 120 min, 10 μM (Caco-2, ratio of B−A and A−B permeabilities): 2.37
